Test results as given in patent publication US20240409585A1, “MACROCYCLIC IMMUNOMODULATORS” (priority 2021, published 2024).
Bridge positions count the residues as written; N and C are the ends. Square brackets hold non-standard residues; d marks the D form. Peptide text beside a SMILES is read from it. * marks the point of attachment. ξ: configuration not given here. Phe(3-CF3) = N[C@@H](Cc1cccc(C(F)(F)F)c1)C(=O)O; Ala(morpholin-4-yl) = N[C@@H](CN1CCOCC1)C(=O)O; Phe(4-COOH) = N[C@@H](Cc1ccc(C(=O)O)cc1)C(=O)O; Bip = N[C@@H](Cc1ccc(-c2ccccc2)cc1)C(=O)O; Phe(3-Br) = N[C@@H](Cc1cccc(Br)c1)C(=O)O; Phe(3-F) = N[C@@H](Cc1cccc(F)c1)C(=O)O; Phe(3-Me) = Cc1cccc(C[C@H](N)C(=O)O)c1; Phe(2-F) = N[C@@H](Cc1ccccc1F)C(=O)O; Cha = N[C@@H](CC1CCCCC1)C(=O)O; Ile(3ξ) = CCC(C)[C@H](N)C(=O)O; Thr(3ξ) = CC(O)[C@H](N)C(=O)O; ξCha = NC(CC1CCCCC1)C(=O)O; Carboxymethyl = O=C(O)C*; NMeA = CN[C@@H](C)C(=O)O; Orn = NCCC[C@H](N)C(=O)O; Dab = NCC[C@H](N)C(=O)O; ξDab = NCCC(N)C(=O)O

biological target: T1, PE-labeled human PD-L1-Ig binding to Jurkat cell line over-expressing human PD-1 (Jurkat-PD-1) (Homo sapiens, UniProt Q15116); assay: Jurkat-PD-1 Cell Binding High-Content Screening Assay (CBA): Method 1; settings: Jurkat-PD-1 cells, PE-labeled PD-L1-Ig; μM; read-out: CBA Method 1 μM
T1 construct: expressed in transfected cells; host or cells: Jurkat
T1 sequence (Q15116 25-288): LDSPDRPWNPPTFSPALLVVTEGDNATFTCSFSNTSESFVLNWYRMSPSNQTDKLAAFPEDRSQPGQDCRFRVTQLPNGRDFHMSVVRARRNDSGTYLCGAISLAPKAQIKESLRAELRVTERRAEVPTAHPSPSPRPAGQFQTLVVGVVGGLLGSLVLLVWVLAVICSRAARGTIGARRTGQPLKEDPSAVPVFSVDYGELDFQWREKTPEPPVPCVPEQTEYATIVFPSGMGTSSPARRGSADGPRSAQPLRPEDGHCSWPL

| IC50 | SMILES |
| --- | --- |
| 0.03 µM | CCC(C)[C@@H]1NC(=O)[C@H](Cc2ccc(-c3ccccc3)cc2)NC(=O)[C@H](C(C)C)NC(=O)[C@H](Cc2c[nH]c3ccccc23)NC(=O)[C@H](CC(=O)O)NC(=O)[C@H](Cc2ccc(OCC(=O)O)cc2)NC(=O)[C@H](C(C)O)NC(=O)CSC[C@@H](C(=O)N[C@@H](CO)C(=O)NCC(=O)N[C@@H](CO)C(N)=O)NC(=O)[C@H](C(C)O)NC(=O)[C@H](C(C)C)NC(=O)C(CC2CCCCC2)NC(=O)[C@H](CCN)NC(=O)[C@@H](CC(C)C)NC(=O)[C@H](C)N(C)C1=O (stereo partly drawn) [Example 5003] ({CH2CO}-[Thr(3ξ)]Y(Carboxymethyl)DWV[Bip][Ile(3ξ)][NMeA][dL][Dab][ξCha]V[Thr(3ξ)]CSGS-NH2; thioether N-14) |
| 0.03 µM | Cc1cccc(C[C@@H]2NC(=O)[C@H](CC(=O)O)NC(=O)[C@H](Cc3ccc(OCC(=O)O)cc3)NC(=O)[C@H](C(C)O)NC(=O)CSC[C@@H](C(=O)N[C@@H](CO)C(=O)NCC(=O)N[C@@H](CO)C(N)=O)NC(=O)[C@H](C(C)O)NC(=O)[C@H](C(C)C)NC(=O)C(CC3CCCCC3)NC(=O)[C@H](CCN)NC(=O)[C@@H](CC(C)C)NC(=O)[C@H](C)N(C)C(=O)[C@H](Cc3ccc(OCC(=O)O)cc3)NC(=O)[C@H](Cc3ccc(-c4ccccc4)cc3)NC(=O)[C@H](Cc3ccc(C(=O)O)cc3)NC2=O)c1 (stereo partly drawn) [Example 5004] ({CH2CO}-[Thr(3ξ)]Y(Carboxymethyl)D[Phe(3-Me)][Phe(4-COOH)][Bip]Y(Carboxymethyl)[NMeA][dL][Dab][ξCha]V[Thr(3ξ)]CSGS-NH2; thioether N-14) |
| 0.02 µM | CCC(C)[C@@H]1NC(=O)[C@H](Cc2ccc(-c3ccccc3)cc2)NC(=O)[C@H](C(C)C)NC(=O)[C@H](Cc2cccc(C)c2)NC(=O)[C@H](CC(=O)O)NC(=O)[C@H](Cc2ccc(OCC(=O)O)cc2)NC(=O)[C@H](C(C)O)NC(=O)CSC[C@@H](C(=O)N[C@@H](CO)C(=O)NCC(=O)N[C@H](CO)C(N)=O)NC(=O)[C@H](C(C)O)NC(=O)[C@H](C(C)C)NC(=O)C(CC2CCCCC2)NC(=O)[C@H](CCN)NC(=O)[C@@H](CC(C)C)NC(=O)[C@H](C)N(C)C1=O (stereo partly drawn) [Example 5005] ({CH2CO}-[Thr(3ξ)]Y(Carboxymethyl)D[Phe(3-Me)]V[Bip][Ile(3ξ)][NMeA][dL][Dab][ξCha]V[Thr(3ξ)]CSG[dS]-NH2; thioether N-14) |
| 0.02 µM | CCC(C)[C@@H]1NC(=O)[C@H](Cc2ccc(-c3ccccc3)cc2)NC(=O)[C@H](C(C)C)NC(=O)[C@H](Cc2c[nH]c3ccccc23)NC(=O)[C@H](CC(=O)O)NC(=O)[C@H](Cc2ccc(OCC(=O)O)cc2)NC(=O)[C@H](C(C)O)NC(=O)CSC[C@@H](C(=O)N[C@H](CO)C(=O)NCC(=O)N[C@@H](CO)C(N)=O)NC(=O)[C@H](CO)NC(=O)[C@H](C(C)C)NC(=O)C(CC2CCCCC2)NC(=O)[C@H](CCN)NC(=O)[C@@H](CC(C)C)NC(=O)[C@H](C)N(C)C1=O (stereo partly drawn) [Example 5006] ({CH2CO}-[Thr(3ξ)]Y(Carboxymethyl)DWV[Bip][Ile(3ξ)][NMeA][dL][Dab][ξCha]VSC[dS]GS-NH2; thioether N-14) |

same assay, conditions: Jurkat-hPD-1 cells, PE-labeled PD-L1-Ig 20 nM final; read-out: Jurkat HPDL1 PD1 IC50 (uM) (Method 1)

| IC50 | SMILES |
| --- | --- |
| 0.11 µM | CC(C)C[C@H]1NC(=O)[C@H](C)N(C)C(=O)[C@H](CCC(N)=O)NC(=O)[C@H](Cc2ccc(-c3ccccc3)cc2)NC(=O)[C@H](Cc2ccc(C(=O)O)cc2)NC(=O)[C@H](Cc2cccc(C(F)(F)F)c2)NC(=O)[C@H](CC(N)=O)NC(=O)[C@H](Cc2ccc(C(=O)O)cc2)NC(=O)[C@H](CN2CCOCC2)NC(=O)CSC[C@@H](C(=O)N[C@@H](CCN)C(N)=O)NC(=O)[C@H](CCCN)NC(=O)[C@H](C(C)C)NC(=O)[C@H](CC2CCCCC2)NC(=O)[C@H](CCN)NC1=O [Example 2279] ({CH2CO}-[Ala(morpholin-4-yl)][Phe(4-COOH)]N[Phe(3-CF3)][Phe(4-COOH)][Bip]Q[NMeA][dL][Dab][Cha]V[Orn]C[Dab]-NH2; thioether N-14) |
| 0.14 µM | CC(C)C[C@H]1NC(=O)[C@H](C)N(C)C(=O)[C@H](CCC(N)=O)NC(=O)[C@H](Cc2ccc(-c3ccccc3)cc2)NC(=O)[C@H](Cc2ccc(C(=O)O)cc2)NC(=O)[C@H](Cc2cccc(C(F)(F)F)c2)NC(=O)[C@H](CC(N)=O)NC(=O)[C@H](Cc2ccc(OCC(=O)O)cc2)NC(=O)[C@H](CN2CCOCC2)NC(=O)CSC[C@@H](C(=O)N[C@@H](CCN)C(N)=O)NC(=O)[C@H](CCCN)NC(=O)[C@H](C(C)C)NC(=O)[C@H](CC2CCCCC2)NC(=O)[C@H](CCN)NC1=O [Example 2280] ({CH2CO}-[Ala(morpholin-4-yl)]Y(Carboxymethyl)N[Phe(3-CF3)][Phe(4-COOH)][Bip]Q[NMeA][dL][Dab][Cha]V[Orn]C[Dab]-NH2; thioether N-14) |
| 0.77 µM | Cc1cccc(C[C@@H]2NC(=O)[C@H](CC(N)=O)NC(=O)[C@H](Cc3ccc(OCC(=O)O)cc3)NC(=O)[C@H]([C@@H](C)O)NC(=O)CSC[C@@H](C(=O)N[C@@H](CCN)C(N)=O)NC(=O)[C@H](CCC(=O)O)NC(=O)[C@H](C(C)C)NC(=O)[C@H](CC3CCCCC3)NC(=O)[C@H](CCN)NC(=O)[C@@H](CC(C)C)NC(=O)[C@H](C)N(C)C(=O)[C@H](Cc3ccc(OCC(=O)O)cc3)NC(=O)[C@H](Cc3ccc(-c4ccccc4)cc3)NC(=O)[C@H](Cc3ccc(OCC(=O)O)cc3)NC2=O)c1 [Example 2281] ({CH2CO}-TY(Carboxymethyl)N[Phe(3-Me)]Y(Carboxymethyl)[Bip]Y(Carboxymethyl)[NMeA][dL][Dab][Cha]VEC[Dab]-NH2; thioether N-14) |
| 0.08 µM | CC(C)[C@@H]1NC(=O)[C@H](CC2CCCCC2)NC(=O)[C@H](CCN)NC(=O)CNC(=O)[C@H](C)N(C)C(=O)[C@H](Cc2ccc(C(=O)O)cc2)NC(=O)[C@H](Cc2ccc(-c3ccccc3)cc2)NC(=O)[C@H](Cc2ccc(C(=O)O)cc2)NC(=O)[C@H](Cc2cccc(C(F)(F)F)c2)NC(=O)[C@H](CC(=O)O)NC(=O)[C@H](Cc2ccc(C(=O)O)cc2)NC(=O)[C@H](CN2CCOCC2)NC(=O)CSC[C@@H](C(=O)N[C@@H](CCN)C(N)=O)NC(=O)[C@H](CCC(=O)O)NC1=O [Example 2286] ({CH2CO}-[Ala(morpholin-4-yl)][Phe(4-COOH)]D[Phe(3-CF3)][Phe(4-COOH)][Bip][Phe(4-COOH)][NMeA]G[Dab][Cha]VEC[Dab]-NH2; thioether N-14) |
| 0.21 µM | Cc1cccc(C[C@@H]2NC(=O)[C@H](CC(=O)O)NC(=O)[C@H](Cc3ccc(OCC(=O)O)cc3)NC(=O)[C@H](CN3CCOCC3)NC(=O)CSC[C@@H](C(=O)N[C@@H](CCN)C(N)=O)NC(=O)[C@H](CCCN)NC(=O)[C@H](C(C)C)NC(=O)[C@H](Cc3cccc(Br)c3)NC(=O)[C@H](CCN)NC(=O)[C@@H](CC(C)C)NC(=O)[C@H](C)N(C)C(=O)[C@H](CCC(N)=O)NC(=O)[C@H](Cc3ccc(-c4ccccc4)cc3)NC(=O)[C@H](Cc3ccc(C(=O)O)cc3)NC2=O)c1 [Example 2291] ({CH2CO}-[Ala(morpholin-4-yl)]Y(Carboxymethyl)D[Phe(3-Me)][Phe(4-COOH)][Bip]Q[NMeA][dL][Dab][Phe(3-Br)]V[Orn]C[Dab]-NH2; thioether N-14) |
| 0.95 µM | Cc1cccc(C[C@@H]2NC(=O)[C@H](CC(=O)O)NC(=O)[C@H](Cc3ccc(OCC(=O)O)cc3)NC(=O)[C@H](CN3CCOCC3)NC(=O)CSC[C@@H](C(=O)N[C@@H](CCN)C(N)=O)NC(=O)[C@H](CCCN)NC(=O)[C@H](C(C)C)NC(=O)[C@H](Cc3cccc(F)c3)NC(=O)[C@H](CCN)NC(=O)[C@@H](CC(C)C)NC(=O)[C@H](C)N(C)C(=O)[C@H](CCC(N)=O)NC(=O)[C@H](Cc3ccc(-c4ccccc4)cc3)NC(=O)[C@H](Cc3ccc(C(=O)O)cc3)NC2=O)c1 [Example 2294] ({CH2CO}-[Ala(morpholin-4-yl)]Y(Carboxymethyl)D[Phe(3-Me)][Phe(4-COOH)][Bip]Q[NMeA][dL][Dab][Phe(3-F)]V[Orn]C[Dab]-NH2; thioether N-14) |
| 0.44 µM | Cc1cccc(C[C@@H]2NC(=O)[C@H](CC(=O)O)NC(=O)[C@H](Cc3ccc(OCC(=O)O)cc3)NC(=O)[C@H](CN3CCOCC3)NC(=O)CSC[C@@H](C(=O)N[C@@H](CCN)C(N)=O)NC(=O)[C@H](CCCN)NC(=O)[C@H](C(C)C)NC(=O)[C@H](Cc3ccccc3F)NC(=O)[C@H](CCN)NC(=O)[C@@H](CC(C)C)NC(=O)[C@H](C)N(C)C(=O)[C@H](CCC(N)=O)NC(=O)[C@H](Cc3ccc(-c4ccccc4)cc3)NC(=O)[C@H](Cc3ccc(C(=O)O)cc3)NC2=O)c1 [Example 2296] ({CH2CO}-[Ala(morpholin-4-yl)]Y(Carboxymethyl)D[Phe(3-Me)][Phe(4-COOH)][Bip]Q[NMeA][dL][Dab][Phe(2-F)]V[Orn]C[Dab]-NH2; thioether N-14) |
| 0.01 µM | Cc1cccc(C[C@@H]2NC(=O)[C@H](CC(=O)O)NC(=O)[C@H](Cc3ccc(OCC(=O)O)cc3)NC(=O)[C@H](CN3CCOCC3)NC(=O)CSC[C@@H](C(=O)NC(CCN)C(N)=O)NC(=O)[C@H](CCCN)NC(=O)[C@H](C(C)C)NC(=O)[C@H](Cc3cccc(C)c3)NC(=O)[C@H](CCN)NC(=O)[C@@H](CC(C)C)NC(=O)[C@H](C)N(C)C(=O)[C@H](CCC(N)=O)NC(=O)[C@H](Cc3ccc(-c4ccccc4)cc3)NC(=O)[C@H](Cc3ccc(C(=O)O)cc3)NC2=O)c1 (stereo partly drawn) [Example 2298] ({CH2CO}-[Ala(morpholin-4-yl)]Y(Carboxymethyl)D[Phe(3-Me)][Phe(4-COOH)][Bip]Q[NMeA][dL][Dab][Phe(3-Me)]V[Orn]C[ξDab]-NH2; thioether N-14) |
| 0.98 µM | Cc1cccc(C[C@@H]2NC(=O)[C@H](CC(=O)O)NC(=O)[C@H](Cc3ccc(OCC(=O)O)cc3)NC(=O)[C@H](CN3CCOCC3)NC(=O)CSC[C@@H](C(=O)NC(CCN)C(N)=O)NC(=O)[C@H](CCCN)NC(=O)[C@H](C(C)C)NC(=O)[C@H](Cc3ccc(O)cc3)NC(=O)[C@H](CCN)NC(=O)[C@@H](CC(C)C)NC(=O)[C@H](C)N(C)C(=O)[C@H](CCC(N)=O)NC(=O)[C@H](Cc3ccc(-c4ccccc4)cc3)NC(=O)[C@H](Cc3ccc(C(=O)O)cc3)NC2=O)c1 (stereo partly drawn) [Example 2301] ({CH2CO}-[Ala(morpholin-4-yl)]Y(Carboxymethyl)D[Phe(3-Me)][Phe(4-COOH)][Bip]Q[NMeA][dL][Dab]YV[Orn]C[ξDab]-NH2; thioether N-14) |
